These results are taken from PMC8048572, “Release of Soybean Isoflavones by Using a β‐Glucosidase from Alicyclobacillus herbarius” (Chembiochem, 2020).

In data set [1] the target is T1, AheGH1 (Paenalicyclobacillus herbarius, UniProt A0A8I3B065).
T1 construct: codon-optimised synthetic gene, C-terminal poly-His tag (pCH93b), E. coli BL21(DE3)
T1 sequence (A0A8I3B065 1-452): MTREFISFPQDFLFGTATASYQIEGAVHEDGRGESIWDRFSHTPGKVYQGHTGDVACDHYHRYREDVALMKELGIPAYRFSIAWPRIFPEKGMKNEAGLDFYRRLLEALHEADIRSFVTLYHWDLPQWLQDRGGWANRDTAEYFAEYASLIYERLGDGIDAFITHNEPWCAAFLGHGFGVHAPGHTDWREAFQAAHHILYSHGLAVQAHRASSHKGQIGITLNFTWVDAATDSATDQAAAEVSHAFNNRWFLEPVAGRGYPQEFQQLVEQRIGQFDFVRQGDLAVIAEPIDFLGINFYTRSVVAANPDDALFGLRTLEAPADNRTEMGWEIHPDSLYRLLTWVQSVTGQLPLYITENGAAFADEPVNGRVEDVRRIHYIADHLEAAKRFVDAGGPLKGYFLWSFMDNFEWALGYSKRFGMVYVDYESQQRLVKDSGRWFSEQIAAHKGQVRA
Kind of data set: spectrophotometric pNPG hydrolysis at […] nm. Type of data set: biochemical. The conditions noted are these: 10 mM pNPG, 50 mM HEPES, pH 7.4, 25 °C; product inhibitor.

The target of data set [2] is T1, AheGH1. Kind of data set: spectrophotometric p-nitrophenol release at […] nm, substrate inhibition fit. The class given is biochemical. The conditions noted are these: 50 mM HEPES, pH 7.4, 25 °C; substrate inhibition constant.
Substrate in the data set “purified protein”: O=[N+]([O-])c1ccc(O[C@@H]2O[C@H](CO)[C@@H](O)[C@H](O)[C@H]2O)cc1
Kind of data set: purified protein. The conditions noted are these: 50 mM HEPES, pH 7.4, 25 °C.

Consider `OC[C@H]1OC(O)[C@H](O)[C@@H](O)[C@@H]1O` (stereo partly shown) [glucose], for which the “% activity retained at 10 % (w/v) glucose” value at AheGH1 [1] is 65%.
In turn, `O=[N+]([O-])c1ccc(O[C@@H]2O[C@H](CO)[C@@H](O)[C@H](O)[C@H]2O)cc1` [pNPG, p‐nitrophenyl‐β‐D‐glucopyranoside] returned a K i on AheGH1 [2] of 37 ± 6 mM.

B1: AheGH1 (Paenalicyclobacillus herbarius) (protein)
chain: MTREFISFPQDFLFGTATASYQIEGAVHEDGRGESIWDRFSHTPGKVYQGHTGDVACDHYHRYREDVALMKELGIPAYRFSIAWPRIFPEKGMKNEAGLDFYRRLLEALHEADIRSFVTLYHWDLPQWLQDRGGWANRDTAEYFAEYASLIYERLGDGIDAFITHNEPWCAAFLGHGFGVHAPGHTDWREAFQAAHHILYSHGLAVQAHRASSHKGQIGITLNFTWVDAATDSATDQAAAEVSHAFNNRWFLEPVAGRGYPQEFQQLVEQRIGQFDFVRQGDLAVIAEPIDFLGINFYTRSVVAANPDDALFGLRTLEAPADNRTEMGWEIHPDSLYRLLTWVQSVTGQLPLYITENGAAFADEPVNGRVEDVRRIHYIADHLEAAKRFVDAGGPLKGYFLWSFMDNFEWALGYSKRFGMVYVDYESQQRLVKDSGRWFSEQIAAHKGQVRA
The Km is the substrate concentration at which the rate is half of its maximum. The kcat is the maximal rate divided by the concentration of active sites. For the molecule B1, in the data set “purified protein”, the Km came out at 1400 ± 100 µM and the catalytic constant (kcat) is 2.7 ± 0.1 s⁻¹.
